From ChEMBL document CHEMBL3988442, “University of Dundee, Small-Polar-MMV Screening Library” (2021)
Where “and” joins values, the source holds several entries; their conditions need not be identical. Identical values can stand only once.

Biological target: T1, Histidine--tRNA ligase (Leishmania infantum, UniProt A4I591)
T1 sequence (A4I591 whole entry): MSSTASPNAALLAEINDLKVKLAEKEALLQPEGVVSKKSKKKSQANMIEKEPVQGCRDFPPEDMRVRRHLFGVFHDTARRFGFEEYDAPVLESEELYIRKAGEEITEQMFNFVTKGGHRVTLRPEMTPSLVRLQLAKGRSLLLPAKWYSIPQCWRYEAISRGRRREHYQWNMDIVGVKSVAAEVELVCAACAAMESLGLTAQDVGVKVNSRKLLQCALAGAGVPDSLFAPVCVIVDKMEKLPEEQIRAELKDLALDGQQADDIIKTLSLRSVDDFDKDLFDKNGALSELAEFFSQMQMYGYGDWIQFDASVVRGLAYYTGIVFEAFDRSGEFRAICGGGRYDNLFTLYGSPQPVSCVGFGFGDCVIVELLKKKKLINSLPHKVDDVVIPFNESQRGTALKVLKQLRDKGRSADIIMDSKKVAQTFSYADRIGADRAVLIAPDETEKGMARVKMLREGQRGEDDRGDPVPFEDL
Experiment: Leishmania infantum Histidine tRNA synthetase (LdHisRS)
Assay type: functional

NC(=O)C1CCCN(Cc2c(-c3ccco3)[nH]c3ncccc23)C1 (centres undefined)
IC50: 67.8 µM and 46 µM

Cc1cc(C(=O)N2CC[C@@H](N(C)C)[C@@H]2Cc2ccccc2)no1
IC50: > 100 µM

O=C1CC2(CCN(Cc3ccc4cccc(O)c4n3)CC2)CN1
IC50: 46.2 µM and 45.6 µM

CC(NC(=O)c1coc(COc2cccc(F)c2)n1)c1nnc(N)s1 (centres undefined)
IC50: 98.7 µM and 60.1 µM

O=C(NC[C@H]1CCCC[C@H]1O)c1ccc2nc(-c3ccco3)[nH]c2c1
IC50: 21 µM and 25.5 µM

O=C(CCc1n[nH]c2c1CCCC2)N1C[C@@H]2CC[C@H](C1)N(CC1CC1)C2
IC50: 44.9 µM and 35.8 µM

CC(=O)NCC1CCN(c2cc(C)nc(-c3ccncc3)n2)CC1
IC50: 64 µM and > 100 µM

Cc1nn(-c2ccccn2)c(C)c1[C@@H]1C=C[C@@H](NC(=O)NC(C)C)C1
IC50: > 100 µM and 88 µM

CCOc1ccc(C(=O)N(CCOC)Cc2c(C)nn(CC)c2C)o1
IC50: > 100 µM

Cc1ccc(-c2noc(CN3CCc4nn(C)c(=O)cc4C3)n2)cc1
IC50: 29.8 µM and 30.4 µM

CS(=O)(=O)N1CCCC(Cc2ccnc3ccncc23)CC1 (centres undefined)
IC50: 21.6 µM and 22.8 µM

CN1C(=O)[C@H]2CC[C@@H]1CN(C(=O)Nc1cccc3ccccc13)C2
IC50: 55.3 µM and 43.3 µM

O=C(Cc1cnc(-c2c(Cl)cccc2Cl)s1)N1CCOCC1
IC50: > 100 µM

Cc1cc(N2CCC(Cc3ccccc3)CC2)nc(-c2ccncc2)n1
IC50: 25 µM and 18.4 µM

O=C(Nc1c(N2CCCC2)cccc1N1CCCC1)c1ccccn1
IC50: 32.1 µM and 26.8 µM

COc1cc(CNc2cnn(C)c2)cc2c1OCCO2
IC50: > 100 µM

c1cc(-c2nnc3sc(CCN4CCCC4)nn23)ccn1
IC50: > 100 µM

NC(=O)c1ccc(N2CCCCC2)c(NC(=O)c2cc(Br)ccc2Cl)c1
IC50: 30.2 µM and 29.7 µM

FC(F)(F)c1ccc(-c2cc(NC3CCNCC3)nc3[nH]ccc23)nc1
IC50: 29.3 µM and 30.2 µM

Cc1noc(C)c1CNc1ccc2nc(C3CC3)sc2c1
IC50: > 100 µM

Cc1nccc(-c2cccc(NCC(=O)N3CCc4sccc4C3)c2)n1
IC50: 73.8 µM and 68.4 µM

Cn1cnnc1C1CCCN(C(=O)c2cc(C3CC3)on2)C1 (centres undefined)
IC50: > 100 µM

CC(C)[C@H](NS(C)(=O)=O)C(=O)NCc1cc(-c2ccco2)n[nH]1
IC50: 87.9 µM and 82 µM

c1cc(-c2ccc3c(c2)C2(CC3)CCN(c3nncs3)CC2)ccn1
IC50: 29.8 µM and 26.8 µM

CC(=O)N(Cc1noc(C)n1)C1CCN(Cc2cccc(C#N)c2)C1 (centres undefined)
IC50: > 100 µM

NC(=O)NC(=O)CCN1CCN(CC2CC2)c2ccccc21
IC50: > 100 µM

CCOc1ccc(N(CCC#N)C(=O)c2ccnc(SC)c2)cc1
IC50: > 100 µM

O=C(c1cncc(N2CCC3(CCCNC3)C2)n1)N1CCCC1 (centres undefined)
IC50: > 100 µM

CC(=O)N1CCN(c2ccccc2CNc2ccc3[nH]ncc3c2)CC1
IC50: > 100 µM and 76.7 µM

COc1ccc(C(NCc2cccc(O)c2)C2CC2)cc1 (centres undefined)
IC50: 26.9 µM and 20.1 µM

COc1ccc(C(C)=O)cc1CN1CCn2cccc2C1C (centres undefined)
IC50: 31.8 µM and 50.6 µM

CC(C)c1nn(C)c(N(C)C)c1CNCc1ccccc1CN(C)C
IC50: > 100 µM

NC(=O)C1=NC2=NS(=O)(=O)c3ccccc3N2N1Cc1ccc(Br)cc1
IC50: 41 µM and 69.9 µM

CCC1CCc2c(c3ccccc3[nH]c2=O)O1 (centres undefined)
IC50: > 100 µM

CC(c1ccco1)n1cc(-c2cc(CN3CCCC3)cs2)nn1 (centres undefined)
IC50: 55.6 µM and 80.9 µM

Cc1ccn(C)c(=O)c1NC(=O)N(C)Cc1cccc(OC(C)C)c1
IC50: 18.1 µM and 21.6 µM

Cc1ncc2c(n1)CN(Cc1nnc(Cc3ccccc3)o1)CC2
IC50: 48.1 µM and 49.9 µM

CCc1ccc2c(C3CN(CC4CCC4)C3)ncn2c1
IC50: 15.7 µM and 18.7 µM

CNC(=O)c1cn2cc(-c3ccccc3Cl)n(CC=C(C)C)c(=O)c2n1
IC50: 54.6 µM and 36 µM

Cc1nnc(NCCc2coc(-c3ccccc3)n2)c(C#N)c1C
IC50: 74.7 µM and 55.7 µM

O=C(c1cc(-c2ccco2)nc2c(Cl)cccc12)N1C[C@H]2CNC[C@H]2C1
IC50: 48.1 µM and 51.8 µM

CC(C)N(C)S(=O)(=O)c1ccc2c(c1)CCN(C(=O)c1ccccn1)C2
IC50: 37 µM and 42.8 µM

Cc1nnc(N2CCc3cnc(C(C)C)nc3C2)c(C#N)c1C
IC50: > 100 µM

O=C1CCC(C(=O)Nc2ccc(=O)n(Cc3ccc(Cl)c(Cl)c3)c2)N1 (centres undefined)
IC50: 10.1 µM and 9.92 µM

CCc1ocnc1C(=O)N1CCN(c2ccc3ccccc3c2)CC1
IC50: 57.4 µM and 54 µM

CCCn1cc(NC(=O)c2cccc3cccnc23)ccc1=O
IC50: 40.1 µM and 37.9 µM

OC1CCCN(Cc2c(-c3ccco3)[nH]c3ncccc23)C1 (centres undefined)
IC50: 58.7 µM and 38.5 µM

O=C(CCn1ccc2cc(Br)ccc21)NCc1ccc(C(=O)O)cc1
IC50: > 100 µM and 66.9 µM

CCc1cc(N2CCC(F)(F)CC2)n2nc(C)c(C)c2n1
IC50: > 100 µM

CNc1[nH]nc(N)c1NC(=O)c1ccccc1
IC50: 12.7 µM and 14.3 µM

Cn1cc(NS(=O)(=O)c2ccc(F)c(F)c2)ccc1=O
IC50: > 100 µM

CCCN1CCC(Cc2nn3c(C(C)C)nnc3s2)CC1
IC50: > 100 µM

Cn1cc(NC(=O)Nc2ccccn2)cc(Cl)c1=O
IC50: 13.6 µM and 14.1 µM

CC1=C(C#N)C(=O)NC(=O)/C1=C\c1c(C)nn(-c2ccc(Cl)cc2)c1O
IC50: > 100 µM

CCCn1nc2c(cc1=O)CN(Cc1cc(C)no1)CC2
IC50: 24.8 µM and 27.4 µM

Cc1nc(N2CCCC2)nc2c1CCN(C(=O)C1CCC1)CC2
IC50: > 100 µM

Cc1noc(C)c1C(=O)N1CCC(Nc2cccnn2)CC1
IC50: > 100 µM

O=C(NCC1CC1)c1cc2c(s1)CCN2c1ncccn1
IC50: 63 µM and 54 µM

Cc1nccn1-c1cccc(C2CCCN(C3CCCCC3)C2)n1 (centres undefined)
IC50: 36.7 µM and 33.6 µM

CC(=O)Nc1ccc2nc(-c3nccn3C[C@@H]3CCCO3)ccc2c1
IC50: > 100 µM and 85.4 µM

Cc1nnc(NCc2ccccc2Cl)c(C#N)c1C
IC50: 24.6 µM and 31.1 µM

NC(=O)CN1CCN(CC2CC2)c2ccccc21
IC50: > 100 µM

O=C1CN(C(=O)c2cc(-c3ccco3)nc3c(Cl)cccc23)CCN1
IC50: 18.6 µM and 19.5 µM

CC(C)c1cc(NC(=O)CN2CCc3nn(C)c(=O)cc3C2)on1
IC50: > 100 µM

COc1cccc2c1OCCCN(c1nc(N)nc3c1CCNC3)C2
IC50: 28.2 µM and 32.1 µM

O=C1CC(c2ccc(C(=O)O)cc2)c2ncn(-c3ccc(Cl)cc3)c2N1 (centres undefined)
IC50: 15.7 µM and 12.4 µM

Cc1cn2nc(N(C)C3CCCN(c4cccnn4)C3)sc2n1 (centres undefined)
IC50: 29.6 µM and 43.5 µM

Cc1nccn1-c1cccc(C2CCCN(C3CCCC3)C2)n1 (centres undefined)
IC50: 32.3 µM and 35.9 µM

C[C@H](NS(C)(=O)=O)C(=O)NCc1cc(-c2ccco2)n[nH]1
IC50: > 100 µM

Fc1ccc(N2CCC3(CC2)CC(OCc2cccnc2)CO3)cc1 (centres undefined)
IC50: 23.3 µM and 15.8 µM

Cc1csc(CN(C)C(C)C(=O)N2CCc3ccccc3C2)n1 (centres undefined)
IC50: > 100 µM

CCN(C(=O)c1nc2c(s1)CCCN2Cc1ccccc1)C(C)C
IC50: 22.3 µM and 17.3 µM

Cc1nn(CCC#N)c(C)c1[C@@H]1C=C[C@@H](NCc2cccc(Cl)c2)C1
IC50: > 100 µM

COc1nccnc1-c1cc(NC2CCNCC2)nc2[nH]ccc12
IC50: 34.1 µM and 29.8 µM

Cn1ccnc1Sc1ccc(N)cn1
IC50: > 100 µM

Cc1cc(C)cc(OCCC(=O)NC2CC(=O)N(C)C2)c1 (centres undefined)
IC50: > 100 µM

CC(C)c1ncc2c(n1)CN(Cc1nc(Cc3ccccc3)no1)CC2
IC50: > 100 µM

Cc1cc(C(=O)Nc2cccn(Cc3ccc(F)cc3)c2=O)on1
IC50: 12.9 µM and 11.3 µM

CN(C)[C@@H]1C[C@@H](CO)N(C(=O)Nc2ccc(SC(F)(F)F)cc2)C1
IC50: > 100 µM

CNCCc1nc2cc(F)ccc2[nH]1
IC50: 47.9 µM and 34.8 µM

O=C(CN1CCc2cncnc2C1)NCCOc1ccccc1
IC50: 74.1 µM and 60.5 µM

Cn1cccc(NC(=O)N2CCC(CSc3ccccc3)C2)c1=O (centres undefined)
IC50: 15.1 µM and 14.9 µM

Nc1cccnc1N1CCCCCC1
IC50: 16.4 µM and 17.4 µM

CN1CCCN(C(=O)c2nc3c(s2)CCCN3CC2CC2)CC1
IC50: 77.9 µM and 55.6 µM

CN1CCN(Cc2nnc(C3CCN(C(CO)CO)CC3)n2C)CC1
IC50: 16 µM and 15.8 µM

CCCn1nc2c(cc1=O)CN(Cc1nc(CCOC)no1)CC2
IC50: 57.7 µM and 67.2 µM

NCc1ccnc(Oc2ccccc2)c1
IC50: 39.2 µM and 30.9 µM

CCC(=O)Nc1cc(Br)cn(C)c1=O
IC50: 7.66 µM and 7.91 µM

O=C(CCNCc1cccc(O)c1)N1CCc2sccc2C1
IC50: 17.7 µM and 23 µM

COc1cccn(CC(=O)N(C)Cc2ccoc2)c1=O
IC50: > 100 µM

O=C1CC(c2ccc(C(=O)O)cc2)c2ncn(-c3ccc(F)cc3)c2N1 (centres undefined)
IC50: 15 µM and 21.9 µM

COCCn1cc(-c2cc(C(=O)N3CCCC3)c3ccccn23)nc1C
IC50: > 100 µM

O=C1CC(c2ccc(C(=O)O)cc2)c2ncn(-c3cccc(Cl)c3)c2N1 (centres undefined)
IC50: 20.7 µM and 26.5 µM

COc1cccc(CN(C)C(=O)CN2CC(n3nc(C)cc3C)C2)c1
IC50: 37.2 µM and 43.7 µM

CN(Cc1ccccc1CN1CCCC1)c1ncnc2[nH]ccc12
IC50: 44.8 µM and 48.7 µM

O=C(Cc1csc(-c2ccco2)n1)N1CCN(c2cnccn2)CC1
IC50: 53.2 µM and 34.3 µM

CCn1nnc2c1C(COCC(=O)N(C)C)CN(Cc1ccco1)C2 (centres undefined)
IC50: > 100 µM

COCCCN(C)C(=O)Cn1cccc(OC)c1=O
IC50: 66 µM and 57.5 µM

CC1=Nc2c(c(=O)[nH]n2C(C)C)C(c2ccc3c(c2)n(C)c(=O)n3C)S1 (centres undefined)
IC50: > 100 µM

COCCN1CCCn2cnc(CNC3CCCC3)c2C1
IC50: 9.13 µM and 12.8 µM

CCCn1nc2c(cc1=O)CN(Cc1ccccn1)CC2
IC50: 20.9 µM and 17.8 µM

COCCOc1ccccc1C(=O)N1CCCCC1c1nccs1 (centres undefined)
IC50: 51.1 µM and 64.2 µM

Cc1ccccc1CC(C)(C)NC(=O)c1cccc(OCC(N)=O)c1
IC50: 77.2 µM and > 100 µM

O=C(c1cnccn1)N1C[C@@H]2[C@@H](C1)OCC(=O)N2CC1CCCC1
IC50: > 100 µM

Cc1ccc(CNC(=O)c2nc3c(o2)CN(C(=O)c2cccnc2)C3)o1
IC50: 37.2 µM and 54.7 µM

Cc1nonc1CN(C)c1nc(-c2cccnc2)nc2c1CCNC2
IC50: 15.1 µM and 18.7 µM

c1cncc(NCCNC2CSCCSC2)c1
IC50: 28.7 µM and 19.6 µM

COc1ccccc1N1CCC(CNCc2cccc(OC)c2OC)C1 (centres undefined)
IC50: > 100 µM

CC(O)CNC(=O)NCc1ccc(N2CCNC(=O)C2)cc1 (centres undefined)
IC50: > 100 µM and 58.3 µM

COCCN1CCCC(C)(c2cc(O)[nH]n2)C1 (centres undefined)
IC50: > 100 µM

Cc1nc(CN(C)C2CCN(Cc3ccc4ccccc4n3)C2)no1 (centres undefined)
IC50: 59.9 µM and 39.8 µM

Cn1nc2c(cc1=O)CN(Cc1nc(-c3ccco3)no1)CC2
IC50: 11.8 µM and 14 µM

O=C(NCc1ccco1)[C@@H]1CC[C@@H]2[C@@H](CCN2Cc2ccc(F)cc2)O1
IC50: 59.4 µM and 27.4 µM

Cn1ncc(-c2cc(-c3cccc(O)c3)nc(N)c2C#N)c1C1CC1
IC50: 61.2 µM and 76.8 µM
